Test results from patent US20230339970A1, “CASEIN KINASE 1 DELTA MODULATORS” (priority 2020, published 2023).

Key:
human CSNK1D = target: T1, human CSNK1D (Homo sapiens, UniProt P48730); test: Whole Cell nBRET CSNK1D Binding Assay; conditions: living CHO cells stably expressing human CSNK1D tagged with nanoluciferase; NanoBret tracer 130 nM; 2 hours at 37 C
T1 construct: expressed in transfected cells

[1] = target: T2, human recombinant GST cleaved CSNK1D (Homo sapiens, UniProt P48730); test: Purified Enzyme Assay (ADP-Glo CSNK1D Kinase Assay); format: biochemical; conditions: 2 nM CSNK1D; peptide substrate 150 μM; ATP 20 μM; 45 minutes at room temperature
T2 construct: GST (cleaved yes); purchased University of Dundee clone DU 19064
Method in brief: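 Percent activity derived from ADP-Glo quantification of ADP produced. Reactions: compound dose-response with human recombinant GST-cleaved CSNK1D, ATP and substrate peptide PLSRTL-pS-VASLPGL, incubated 45 min at room temperature.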

T2 sequence (P48730 whole entry): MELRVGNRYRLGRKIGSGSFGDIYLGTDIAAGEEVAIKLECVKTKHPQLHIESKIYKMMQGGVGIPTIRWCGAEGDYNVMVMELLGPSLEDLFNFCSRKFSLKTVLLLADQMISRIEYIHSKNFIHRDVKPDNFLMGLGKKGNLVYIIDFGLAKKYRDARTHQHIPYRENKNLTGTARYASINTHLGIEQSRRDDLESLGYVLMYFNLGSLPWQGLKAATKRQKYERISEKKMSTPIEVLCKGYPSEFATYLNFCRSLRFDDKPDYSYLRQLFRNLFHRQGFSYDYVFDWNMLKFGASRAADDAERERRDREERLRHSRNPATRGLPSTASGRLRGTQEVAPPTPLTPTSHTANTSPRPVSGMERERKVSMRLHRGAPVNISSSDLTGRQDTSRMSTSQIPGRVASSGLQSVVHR
T1 sequence (P48730 whole entry): as above

IC50 (human CSNK1D) [nM]	IC50 [1] [nM]	Structure (SMILES)
320	12	Fc1ccc(-c2nn3c(c2-c2ccnc4[nH]ncc24)[C@H]2CC[C@@H]3C2)nc1 (single isomer, unassigned) [Example 63, (4*S,7*R)-2-(5-Fluoropyridin-2-yl)-3-(1H-pyrazolo[3,4-b]pyridin-4-yl)-4,5,6,7-tetrahydro-4,7-methanopyrazolo[1,5-a]pyridine]
136	7	Fc1ccc(-c2nn3c(c2-c2ccnc4[nH]ncc24)CCC3)nc1 [Example 7, 4-[2-(5-Fluoro-2-pyridyl)-5,6-dihydro-4H-pyrrolo[1,2-b]pyrazol-3-yl]-1H-pyrazolo[3,4-b]pyridine]
49	3	[2H]C([2H])([2H])C1(C([2H])([2H])[2H])Cc2c(-c3c(F)cnc4[nH]ncc34)c(-c3ccc(F)cn3)nn2C1 [Example 243, 5-Fluoro-4-[2-(5-fluoro-2-pyridyl)-5,5-bis(methyl-d3)-4,6-dihydropyrrolo[1,2-b]pyrazol-3-yl]-1H-pyrazolo[3,4-b]pyridine]
279	21	Cc1cc(-c2c(-c3ccc(F)cc3)nn3c2CC2(C3)CC2(F)F)c2cn[nH]c2n1 (single isomer, unassigned) [Example 253, (*R)-1′.1′-Difluoro-2-(4-fluorophenyl)-3-(6-methyl-1H-pyrazolo[3,4-b]pyridin-4-yl)spiro[4,6-dihydropyrrolo[1,2-b]pyrazole-5,2′-cyclopropane]]
113	12	Fc1ccc(-c2nn3c(c2-c2ccncc2)OCCC3)cc1 [Example 438, 2-(4-Fluorophenyl)-3-(4-pyridyl)-6,7-dihydro-5H-pyrazolo[5,1-b][1,3]oxazine]
134	4	CC[C@]1(C)Cn2nc(-c3ccc(F)cn3)c(-c3ccnc4[nH]ncc34)c2CO1 (single isomer, unassigned) [Example 169, (*R)-6-Ethyl-2-(5-fluoropyridin-2-yl)-6-methyl-3-(1H-pyrazolo[3,4-b]pyridin-4-yl)-6,7-dihydro-4H-pyrazolo[5,1-c][1,4]oxazine]
> 10000	6870	Cn1cc2c(-c3c(-c4ccc(F)cn4)nn4c3COC(C)(C)C4)ccnc2n1 [Example 158, 2-(5-Fluoro-2-pyridyl)-6,6-dimethyl-3-(2-methylpyrazolo[3,4-b]pyridin-4-yl)-4,7-dihydropyrazolo[5,1-c][1,4]oxazine]
197	17	Fc1ccc(-c2nn3c(c2-c2ccnc4[nH]ncc24)CCC32CC2)nc1 [Example 249, 2-(5-Fluoro-2-pyridyl)-3-(1H-pyrazolo[3,4-b]pyridin-4-yl)spiro[4,5-dihydropyrrolo[1,2-b]pyrazole-6,1′-cyclopropane]]
557	19	CC[C@@H]1Cn2nc(-c3ccc(F)cn3)c(-c3ccnc4[nH]ncc34)c2CO1 (single isomer, unassigned) [Example 95, (*R)-6-Ethyl-2-(5-fluoropyridin-2-yl)-3-(1H-pyrazolo[3,4-b]pyridin-4-yl)-6,7-dihydro-4H-pyrazolo[5,1-c][1,4]oxazine]
48	2	C[C@H]1Cn2nc(-c3ccc(F)cc3)c(-c3ccnc4[nH]ncc34)c2CO1 (single isomer, unassigned) [Example 81, (*)-2-(4-Fluorophenyl)-6-methyl-3-(1H-pyrazolo[3,4-b]pyridin-4-yl)-6,7-dihydro-4H-pyrazolo[5,1-c][1,4]oxazine]
482	54	Fc1cc(-c2nn3c(c2-c2ccnc4[nH]ncc24)COCC3)ccc1Cl [Example 72, 2-(4-Chloro-3-fluoro-phenyl)-3-(1H-pyrazolo[3,4-b]pyridin-4-yl)-6,7-dihydro-4H-pyrazolo[5,1-c][1,4]oxazine]
